In US11679165B2, “Alkenyl substituted 2,5-piperazinediones, compositions, and uses thereof” (Massachusetts Institute of Technology, priority 2015, dated 2023):

Legend:
[1] = system: human Erythropoietin (EPO); assay: Serum EPO after intravenous injection of EPO mRNA loaded LNPs (ELISA); type: in vivo, mice; settings: for serum EPO concentration: 0.75 mg/kg intravenous, C57BL/6 mice, six hours (FIG. 2); for Average EPO: serum EPO, mean±SD (n=3), 6 hr after 0.75 mg/kg intravenous injection into mice, lipid formulated as EPO mRNA LNP
Protocol: Compounds OF-00 through OF-03 were then formulated with human erythropoietin (EPO) mRNA, cholesterol, 1,2-dioleoyl-sn-glycero-3-phosphoethanolamine, and C14-PEG-2000 in accordance with previously optimized formulation parameters for mRNA delivery. See, e.g., A. Amirouche et al., Human molecular genetics 2013, 22, 3093-3111. […] Additionally, cKK-E12 is capable of silencing Factor VII expression in mice at siRNA doses as low as 0.002 mg/kg, and as such it represents a benchmark ionizable lipid in the field of nucleic acid delivery. The nanoparticle diameters, polydispersity indices, and encapsulation efficiencies for each of these five formulations is provided in Table 1. Serum EPO concentrations are reported as mean±SD (n=3) 6 hr after a 0.75 mg/kg dose intravenous injection into mice. Encapsulation efficiencies, LNP diameter, and PDI were collected as described above for each representative LNP formulation.
Each resultant mRNA loaded LNP was then injected intravenously at a 0.75 mg/kg dose in C57BL/6 mice alongside phosphate buffered saline (PBS) as a negative control. At six hours, the serum EPO levels were quantified (FIG. 2). The PBS control imparted no significant EPO production in vivo, whereas positive control cKK-E12 LNPs promoted a serum EPO concentration of 7050 ng/mL. […] Additionally, OF-02 outperformed two other benchmark ionizable lipids from the siRNA delivery field, namely 503-013 (See, e.g, J. McClellan, M. C. King, Cell 2010, 141, 210-217; Whitehead et al., Nature Communications (2014) 5:4277) and C12-200 (K. T. Love et al., Proceedings of the National Academy of Sciences of the United States of America 2010, 107, 1864-1869). These two compounds represent the leads in their respective ionizable lipid classes of acrylate esters and amino alcohols, and promoted respective EPO concentrations of 2836 ng/mL and 7065 ng/mL at an identical dose.
General Lipid Nanoparticle (LNP) Synthesis. The organic phase was prepared by solubilizing with ethanol a mixture of ionizable lipid, 1,2-dioleoyl-sn-glycero-3-phosphoethanolamine (DOPE, Avanti), cholesterol (Sigma), and 1,2-dimyristoyl-sn-glycero-3-phosphoethanolamine-N-[methoxy(polyethyleneglycol)-2000] (ammonium salt) (C14-PEG 2000, Avanti) at a molar ratio of 35:16:46.5:2.5 and ionizable lipid:mRNA weight ratio of 10:1 in accordance with previously optimized formulation parameters for mRNA delivery. The aqueous phase was prepared in 10 mM citrate buffer (pH 3) with either EPO mRNA (human Erythropoietin mRNA, courtesy of Shire Pharmaceuticals, Cambridge, Mass.) or Luc mRNA (Firefly luciferase mRNA, Shire). The ethanol and aqueous phases were mixed at a 3:1 ratio in a microfluidic chip device (ref Delai's paper) using syringe pumps as previously described at a final mRNA concentration of 0.1 mg/mL. See, e.g., Chen et al., J. Am. Chem. Soc. (2012) 134:6948. Resultant LNPs were dialyzed against PBS in a 20,000 MWCO cassette at 4° C. for 2 hours.
(§1) Animal Experiments. […] Luminescence was quantified using LivingImage software (Perkin Elmer).

[2] = mRNA encapsulation efficiency, modified Quant-iT RiboGreen RNA assay; type: physicochemical; settings: EPO mRNA LNP formulation of the ionizable lipid
Protocol: (§2) General Lipid Nanoparticle (LNP) Synthesis. […] The ethanol and aqueous phases were mixed at a 3:1 ratio in a microfluidic chip device (ref […] paper) using syringe pumps as previously described at a final mRNA concentration of 0.1 mg/mL. See, e.g., Chen et al., J. Am. Chem. Soc. (2012) 134:6948. Resultant LNPs were dialyzed against PBS in a 20,000 MWCO cassette at 4° C. for 2 hours. LNP Characterization. To calculate the mRNA encapsulation efficiency, a modified Quant-iT RiboGreen RNA assay (Invitrogen) was used as previously described. See, […] al., J. Controlled Release (2005) 107:276-287. The diameter and polydispersity (PDI) of the LNPs were measured using dynamic light scattering (ZetaPALS, Brookhaven Instruments). LNP diameters are reported as the largest intensity mean peak average, which constituted >95% of the nanoparticles present in the sample.

[3] = LNP diameter and polydispersity by dynamic light scattering; type: physicochemical; settings: for LNP Diameter: largest intensity mean peak average
Protocol: as §2

[4] = system: luciferase; set-up: species or system mice; settings: mouse, in vivo
Protocol: We were interested to determine if the efficacy differences observed between ckk-E12 and OF-02 LNPs were due to variations in biodistribution. mRNA coding for luciferase was independently formulated with both ckk-E12 and OF-02 in the same fashion as for EPO delivery, and mouse organs were harvested 24 hours post injection. […] Since more than 4000 human diseases are caused by liver genetic disorders such as hemophilias A and B, OF-02 LNPs represent a promising delivery vehicle for therapeutic mRNA delivery to the liver. See, e.g., J. McClellan et al., Cell 2010, 142, 353-355.
as §1

[5] = system: Factor VII; settings: mice, siRNA delivery; cited from earlier work
[6] = system: mice; assay: Mortality and weight change of mice treated with mRNA LNPs; settings: all doses studied
Protocol: FIG. 7 depicts the percent weight gain for cKK-E12 and OF-02 mRNA LNPs reported as mean SD (n=3) 24 hours after respective intravenous dose into mice.
Animal Experiments. […] LNPs were intraveneously injected in female C57BL/6 mice (Charles River Labs, 18-22 grams) via the tail vein. After six or 24 hours, blood was collected via the tail vein and serum was isolated by centrifugation in serum separation tubes. Serum EPO levels were quantified with an ELISA assay (Human Erythropoietin Quantikine IVD ELISA Kit, R&D Systems, Minneapolis, Md.). 24 hours after injection of Luc-mRNA LNPs, mice were injected intraperitoneally with 130 μL of D-luciferin (30 mg/mL in PBS). After fifteen minutes, mice were sacrificed and the organs were isolated (pancreas, spleen, liver, kidneys, lungs, heart, uterus and ovaries) and imaged with an IVIS imaging system (Perkin Elmer, Waltham, Mass.). Luminescence was quantified using LivingImage software (Perkin Elmer).

Compound | serum EPO concentration [1] [ng/mL] | Average EPO [1] [ng/mL] | Encapsulation Efficiency [2] [%] | PDI [3] | LNP Diameter [3] [nm] | dose response behaviour of EPO production ([1]; 0.75 to 2.25 mg/kg EPO mRNA (FIG. 3B)) | organ of luciferase mRNA translation (total luminescence per organ) [4] | siRNA dose at which Factor VII expression is silenced [5] [µg/kg] | animal mortality [6]
CCCCCCCCCCCCCOC(=O)CCN(CCC(=O)OCCCCCCCCCCCCC)CCN(C)CCCN(C)CCN(CCC(=O)OCCCCCCCCCCCCC)CCC(=O)OCCCCCCCCCCCCC [Compound 503-013] | 2836 | – | – | – | – | – | – | – | –
CCCCCCCCCCC(O)CN(CCN1CCN(CCN(CC(O)CCCCCCCCCC)CC(O)CCCCCCCCCC)CC1)CCN(CC(O)CCCCCCCCCC)CC(O)CCCCCCCCCC (stereo not drawn) [Compound C12-200] | 7065 | – | – | – | – | – | – | – | –
CC/C=C\C/C=C\C/C=C\CC(O)CN(CCCCC1NC(=O)C(CCCCN(CC(O)C/C=C\C/C=C\C/C=C\CC)CC(O)C/C=C\C/C=C\C/C=C\CC)NC1=O)CC(O)C/C=C\C/C=C\C/C=C\CC (stereo not drawn) [OF-03] | – | 140 ± 3 | 76 | 0.239 | 75 | – | – | – | –
CCCCCCCCCCC(O)CN(CCCCC1NC(=O)C(CCCCN(CC(O)CCCCCCCCCC)CC(O)CCCCCCCCCC)NC1=O)CC(O)CCCCCCCCCC (stereo not drawn) [cKK-E12] | 7050 | 7100 ± 700 | 54 | 0.217 | 83 | linear fashion with respect to dose | predominantly translated in the liver | 2 | no animal mortality was observed
